Patent US9611223B2, “3-aryl-5-substituted-isoquinolin-1-one compounds and their therapeutic use” (INSTITUTE OF CANCER RESEARCH: ROYAL CANCER HOSPITAL (THE), priority 2013, dated 2017)
pIC50: −log10 of the molar value. Read-outs that look alike come from different tables or passages of the source.

Key:
Type in all cases: cell-based
COLO320DM cells = assay: Tumour Cell Inhibition Assay (COLO320DM cells); details: Homo sapiens, COLO 320DM, 120 h, five day exposure, read-out: cell inhibitory SF50 (COLO320DM)
Protocol: (§1) Tumour Cell Inhibition in Colorectal Tumour Cells
(§2) In order to determine the efficacy of acute dosing of putative TNKS inhibitors, five day exposure cell viability assays were carried out. This included the sparse seeding of cells in a 96-well plate followed by continuous dosing of cells over a five day period.
(§3) Appropriate cell lines (HT55, COLO320DM and SW620) were seeded at 500 cells/well in a 96-well plate in MEM (HT55), RPMI (COLO320DM) or DMEM (SW620) supplemented with FBS. After overnight incubation, cells were treated with the appropriate putative TNKS inhibitor in 6 or 10 concentrations ranging from 0 μM to 10 μM at 0.2% final DMSO concentration in appropriate media supplemented with 10% or 0.5% FBS. Dosages were carried out in triplicate. Termination of the assay and measurement of cell viability was achieved by the use of Cell Titre Glo reagent and luminescence measurement on an appropriate plate reader.
(§4) Dose response curves used to determine SF50 values were Log transformed and analysed by non-linear regression analysis (variable slope) using Prism (GraphPad Software, Inc).

HT55 cells [1] = assay: Long-Term Clonogenic Assay (HT55 cells); details: Homo sapiens, 12-14 days, read-out: cell inhibitory SF50 (HT55)
Protocol: (§5) Clonogenic Inhibition in DLD1 or HT55 Cells
(§6) In order to determine the efficacy of chronic dosing of putative TNKS inhibitors, long term clonogenic or ‘colony formation’ assays were carried out. This included the sparse seeding of cells in a 6-well dish followed by continuous dosing of cells over 12-14 days (depending on relative cell growth). Appropriate cell lines (DLD1 or HT55) were seeded at 500 cells/well in a 6-well dish in DMEM supplemented with FBS. After overnight incubation, cells were treated with the appropriate putative TNKS inhibitor at 10 μM, 3 μM, 1 μM, 0.30 μM, 0.1 μM and 0 μM at 0.2-1% final DMSO concentration (cell line dependent) in DMEM supplemented with 10% FBS (DLD1 cells were dosed in DMEM supplemented with 0.5% FBS). Dosages were carried out in triplicate. Cell media containing compound or DMSO only was replenished every 48 hours. On termination of the assay, plates were read with Cell Titre Glo reagent and luminescence measured on an appropriate plate reader.
(§7) The data was normalised to the DMSO control and was expressed as surviving fraction as a function of inhibitor dose. Dose response curves used to determine SF50 values were Log transformed and analysed by non-linear regression analysis (variable slope) using Prism (GraphPad Software, Inc).

HT55 cells [2] = assay: Tumour Cell Inhibition Assay (HT55 cells); details: Homo sapiens, HT55, 120 h, Tumour Cell Inhibition Assay, five day exposure
Protocol: as §1, §2, §3, §4

SW620 cells = assay: Tumour Cell Inhibition Assay (SW620 cells); details: Homo sapiens, SW-620, 120 h, five day exposure
Protocol: as §1, §2, §3, §4

DLD1 cells = assay: Long-Term Clonogenic Assay (DLD1 cells); details: Homo sapiens, DLD-1, 12-14 days, read-out: cell inhibitory SF50 (DLD1)
Protocol: as §5, §6, §7

Row | pIC50 (COLO320DM cells) | pIC50 (HT55 cells [1]) | pIC50 (HT55 cells [2]; read-out: cell inhibitory SF50 (HT55)) | pIC50 (HT55 cells [2]; replicate, read-out: cell inhibitory SF50 (HT55), replicate) | pIC50 (SW620 cells; read-out: cell inhibitory SF50 (SW620)) | pIC50 (SW620 cells; replicate, read-out: cell inhibitory SF50 (SW620), replicate) | pIC50 (DLD1 cells) | Compound
1 | > 5.30 | > 5.30 |  |  |  |  |  | CN1CCN(Cc2ccc(-c3cc4c(C#N)cc(F)cc4c(=O)[nH]3)cc2)CC1 [IQ-014]
2 | > 5.30 | > 5.30 | > 5.30 |  |  |  |  | CN(C)C1CCN(Cc2ccc(-c3cc4c(C#N)cccc4c(=O)[nH]3)cc2)C1 (stereo not shown) [IQ-011]
3 | > 5.30 | > 5.30 |  | 5.74 | 5.52 | 5.77 |  | CN(C)C1CCN(Cc2ccc(-c3cc4c(C#N)cccc4c(=O)[nH]3)cc2)CC1 [IQ-012]
4 | > 5.30 | > 5.30 |  |  |  |  | 5.64 | CN1CCN(Cc2ccc(-c3cc4c(C#N)cccc4c(=O)[nH]3)cc2)CC1 [IQ-002, 3-[4-(4-Methyl-piperazin-1-ylmethyl)-phenyl]-1-oxo-1,2-dihydro-isoquinoline-5-carbonitrile]
